Measured values from ChEMBL document CHEMBL4421731, “Small molecules inhibiting oncoprotein Myc” (2016).
One block for each compound: values may come before it. Activity calls are given as the source filed them. No cut-off for these calls is given here.

Key:
SK-MEL19 = test: Growth inhibition of human SK-MEL-19 cells; format: functional, cell-based
SK-MEL-103 [1] = test: Growth inhibition of human SK-MEL-103 cells; format: functional, cell-based
[2] = target: Myc proto-oncogene protein (Homo sapiens) (UniProt P01106); test: Inhibition of Myc in human melanoma cells assessed as increase in Myc-repressed p27kip1 gene expression; format: cell-based
[3] = target: Myc proto-oncogene protein (Homo sapiens) (UniProt P01106); test: Inhibition of Myc in human melanoma cells assessed as reduction in Myc-transactivated thymidylate synthase gene expression; format: cell-based
BE(2)-C = test: Growth inhibition of human BE(2)-C cells; format: functional, cell-based
IMR-32 = test: Growth inhibition of human IMR32 cells; format: functional, cell-based
Homo sapiens [4] = organism: Homo sapiens; test: Growth inhibition of N-Myc amplified human NBL-WN cells; format: functional
Homo sapiens [5] = organism: Homo sapiens; test: Growth inhibition of N-Myc overexpressing human NBL-S cells; format: functional
SH-SY5Y = test: Growth inhibition of human SH-SY5Y cells; format: functional, cell-based
Homo sapiens [6] = organism: Homo sapiens; test: Growth inhibition of human SHEP cells; format: functional
Melanoma cell line [7] = test: Growth inhibition of human melanoma (#3) cells; format: functional, cell-based
Melanoma cell line [8] = test: Growth inhibition of human melanoma (#10) cells; format: functional, cell-based
Melanocyte = test: Growth inhibition of human melanocytes; format: cell-based
[9] = target: T1, N-myc proto-oncogene protein (Homo sapiens) (UniProt P04198); test: Inhibition of N-Myc (unknown origin) expressed in rat Rat1A cells assessed as inhibition of cell growth incubated for 72 hrs by methylene blue staining based assay
T1 sequence (whole entry): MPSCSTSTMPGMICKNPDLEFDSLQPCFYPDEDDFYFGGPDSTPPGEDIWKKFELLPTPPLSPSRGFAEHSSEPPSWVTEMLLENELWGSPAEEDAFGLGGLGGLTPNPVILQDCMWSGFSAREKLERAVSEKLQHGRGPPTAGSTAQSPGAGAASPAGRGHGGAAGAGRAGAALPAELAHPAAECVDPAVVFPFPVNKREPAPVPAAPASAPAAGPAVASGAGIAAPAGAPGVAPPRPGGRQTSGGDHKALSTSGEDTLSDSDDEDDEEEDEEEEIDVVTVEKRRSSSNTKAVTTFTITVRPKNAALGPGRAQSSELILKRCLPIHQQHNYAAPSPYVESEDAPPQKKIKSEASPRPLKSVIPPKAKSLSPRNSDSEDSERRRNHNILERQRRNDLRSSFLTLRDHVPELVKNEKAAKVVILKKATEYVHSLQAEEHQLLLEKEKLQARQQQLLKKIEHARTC

[10] = target: Myc proto-oncogene protein (Homo sapiens) (UniProt P01106); test: Inhibition of C-Myc (unknown origin) expressed in rat Rat1A cells assessed as inhibition of cell growth incubated for 72 hrs by methylene blue staining based assay
[11] = Intrinsic clearance in mouse liver microsomes at 1 uM in presence of NADPH by LC-MS/MS analysis; format: ADME, Microsome
[12] = Intrinsic clearance in human liver microsomes at 1 uM in presence of NADPH by LC-MS/MS analysis; format: ADME, Microsome
[13] = Stability in mouse liver microsomes assessed as parent compound remaining at 1 uM incubated for 0 mins in presence of NADPH by LC-MS/MS analysis; format: ADME, Microsome; conditions: read-out: Stability
[14] = Stability in human liver microsomes assessed as parent compound remaining at 1 uM incubated for 0 mins in presence of NADPH by LC-MS/MS analysis; format: ADME, Microsome; conditions: read-out: Stability
[15] = Toxicity in athymic nude mouse xenografted with human SK-MEL-103 cells assessed as induction of distress at 50 mg/kg, ip dosed daily for 14 days dosed via Captisol formulation and measured on day 16; format: organism-based; conditions: in vivo, 336 h
Melanoma cell line [16] = test: Antitumor activity against human melanoma cells xenografted in mouse assessed as inhibition of tumor growth measured up to 8 days; format: functional, cell-based
[17] = Toxicity in mouse xenografted with human melanoma cells measured up to 8 days; conditions: 192 h
SK-MEL-103 [18] = test: Antitumor activity against human SK-MEL-103 cells xenografted in athymic nude mouse assessed as inhibition of tumor growth at 50 mg/kg, ip dosed daily; format: functional, organism-based
SK-MEL-103 [19] = test: Antitumor activity against human SK-MEL-103 cells xenografted in athymic nude mouse assessed as improvement in mouse survival at 50 mg/kg, ip dosed daily for 14 days dosed via Captisol formulation; format: functional, organism-based
[20] = Toxicity in athymic nude mouse xenografted with human SK-MEL-103 cells assessed as induction of weight loss at 50 mg/kg, ip dosed daily for 14 days dosed via Captisol formulation; format: organism-based; conditions: in vivo, 336 h
[21] = Toxicity in athymic nude mouse xenografted with human SK-MEL-103 cells assessed as induction of sickness at 50 mg/kg, ip dosed daily for 14 days dosed via Captisol formulation and measured on day 16; format: organism-based; conditions: in vivo, 336 h
SK-MEL-103 [22] = test: Antitumor activity against human SK-MEL-103 cells xenografted in athymic nude mouse assessed as improvement in mouse survival at 50 mg/kg, ip dosed daily for 4 days dosed via Captisol formulation; format: functional, organism-based
SK-MEL-103 [23] = test: Antitumor activity against human SK-MEL-103 cells xenografted in athymic nude mouse assessed as initial tumor level at 50 mg/kg, ip dosed daily for 14 days dosed via Captisol formulation (reference value: 80%); format: functional
[24] = target: Myc proto-oncogene protein (Homo sapiens) (UniProt P01106); test: Inhibition of C-Myc in human SK-MEL-103 cells assessed as reduction in MYC-dependent transcriptional activation incubated for 48 hrs by microarray relative to control; format: cell-based
[25] = target: Myc proto-oncogene protein (Homo sapiens) (UniProt P01106); test: Inhibition of C-Myc (unknown origin) expressed in rat HO15.19 cells assessed as accumulation at G0/G1 phase at 3 uM by flow cytometry (reference value: 35.43%); format: cell-based; design: scale not given: the % may be the effect or the level left
HO15.19 = test: Induction of cell cycle arrest in rat HO15.19 cells assessed as accumulation at G0/G1 phase at 3 uM by flow cytometry (reference value: 50.76%); format: cell-based; conditions: ho15.19, 3 µM
[26] = target: Myc proto-oncogene protein (Homo sapiens) (UniProt P01106); test: Inhibition of C-Myc in human melanoma (#9) cells assessed as reduction in serine levels by [13C]-glucose labeling based assay; format: cell-based
[27] = target: Myc proto-oncogene protein (Homo sapiens) (UniProt P01106); test: Inhibition of C-Myc in human melanoma (#9) cells assessed as reduction in pyruvate levels by [13C]-glucose labeling based assay; format: cell-based
[28] = target: Myc proto-oncogene protein (Homo sapiens) (UniProt P01106); test: Inhibition of C-Myc in human melanoma (#9) cells assessed as reduction in lactate levels by [13C]-glucose labeling based assay; format: cell-based
[29] = target: Myc proto-oncogene protein (Homo sapiens) (UniProt P01106); test: Inhibition of C-Myc in human melanoma (#9) cells assessed as reduction in fumarate levels by [13C]-glucose labeling based assay; format: cell-based
[30] = Toxicity in athymic nude mouse xenografted with human SK-MEL-103 cells assessed as induction of weight loss at 50 mg/kg, ip dosed daily for 1 days dosed via Captisol formulation (reference value: 100 +/- 10%%); format: organism-based; conditions: in vivo, 24 h
[31] = Toxicity in athymic nude mouse xenografted with human SK-MEL-103 cells assessed as induction of weight loss at 50 mg/kg, ip dosed daily for 3 days dosed via Captisol formulation (reference value: 100 +/- 10%%); format: organism-based; conditions: in vivo, 72 h
[32] = Toxicity in athymic nude mouse xenografted with human SK-MEL-103 cells assessed as induction of weight loss at 50 mg/kg, ip dosed daily for 5 days dosed via Captisol formulation (reference value: 100 +/- 10%%); format: organism-based; conditions: in vivo, 120 h
[33] = Toxicity in athymic nude mouse xenografted with human SK-MEL-103 cells assessed as induction of weight loss at 50 mg/kg, ip dosed daily for 10 days dosed via Captisol formulation (reference value: 100 +/- 10%%); format: organism-based; conditions: in vivo, 240 h
[34] = Toxicity in athymic nude mouse xenografted with human SK-MEL-103 cells assessed as induction of weight loss at 50 mg/kg, ip dosed daily for 12 days dosed via Captisol formulation (reference value: 100 +/- 10%%); format: organism-based; conditions: in vivo, 288 h
[35] = Toxicity in athymic nude mouse xenografted with human SK-MEL-103 cells assessed as induction of weight loss at 50 mg/kg, ip dosed daily for 14 days dosed via Captisol formulation (reference value: 100 +/- 10%%); format: organism-based; conditions: in vivo, 336 h

Sequence of Myc proto-oncogene protein (Homo sapiens) (P01106 whole entry): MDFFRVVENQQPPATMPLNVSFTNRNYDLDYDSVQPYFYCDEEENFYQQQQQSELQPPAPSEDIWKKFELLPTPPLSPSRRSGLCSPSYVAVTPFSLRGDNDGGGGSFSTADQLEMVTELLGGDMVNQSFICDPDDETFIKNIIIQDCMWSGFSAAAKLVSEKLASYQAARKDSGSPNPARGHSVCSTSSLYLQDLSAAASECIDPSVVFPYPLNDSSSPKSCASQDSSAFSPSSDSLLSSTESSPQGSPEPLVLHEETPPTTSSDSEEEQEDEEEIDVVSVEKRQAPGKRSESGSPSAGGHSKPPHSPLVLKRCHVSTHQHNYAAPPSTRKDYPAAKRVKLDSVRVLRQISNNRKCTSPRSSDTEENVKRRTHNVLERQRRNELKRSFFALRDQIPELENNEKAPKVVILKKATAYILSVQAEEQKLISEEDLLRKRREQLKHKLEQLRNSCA

inhibition [2]: Active
inhibition [3]: Active
Compound: CCOc1cccc(/C=N/NC(=O)CSc2nc3ccccc3[nH]2)c1O
growth inhibition (GI) (BE(2)-C): Active
growth inhibition (GI) (IMR-32): Active
growth inhibition (GI) (Homo sapiens [4]): Active
growth inhibition (GI) (Homo sapiens [5]): Active
growth inhibition (GI) (SH-SY5Y): Active
growth inhibition (GI) (Homo sapiens [6]): Active
growth inhibition (GI) (Melanoma cell line [7]): Active
growth inhibition (GI) (Melanoma cell line [8]): Active
growth inhibition (GI) (Melanocyte): Non-Toxic

inhibition [9]: Active
inhibition [10]: Active
intrinsic clearance [11]: 100 µL/min/mg
intrinsic clearance [12]: < 20 µL/min/mg
Compound: CCN(CC)c1ccc(/C=N/NC(=O)Cn2c3ccccc3c(=O)c3ccccc32)c(O)c1

inhibition [9]: Active
inhibition [10]: Active
remaining at 0 h, 1 µM [13]: 100%
remaining at 0 h, 1 µM [14]: 100%
Compound: Nc1nonc1-n1nnc(C(=O)N/N=C/c2ccccc2O)c1CN1CCc2ccccc2C1

inhibition [2]: Active
inhibition [3]: Active
Compound: O=C(N/N=C/c1c(O)ccc2ccccc12)c1cc(C23CC4CC(CC(C4)C2)C3)n[nH]1

inhibition [9]: Active
inhibition [10]: Active
intrinsic clearance [11]: 200 µL/min/mg
intrinsic clearance [12]: 47 µL/min/mg
Compound: CCN(CC)c1ccc(/C=N/NC(=O)c2cc(C)n[nH]2)c(O)c1

inhibition [2]: Active
inhibition [3]: Active
Compound: CC(C)(C)c1cc(C(=O)N/N=C/c2ccc(O)cc2O)n(-c2ccccc2)n1
growth inhibition (GI) (BE(2)-C): Active
growth inhibition (GI) (IMR-32): Active
growth inhibition (GI) (Homo sapiens [4]): Active
growth inhibition (GI) (Homo sapiens [5]): Active
growth inhibition (GI) (SH-SY5Y): Active
growth inhibition (GI) (Homo sapiens [6]): Active
growth inhibition (GI) (Melanoma cell line [7]): Active
growth inhibition (GI) (Melanoma cell line [8]): Active
growth inhibition (GI) (Melanocyte): Non-Toxic

inhibition [9]: Active
inhibition [10]: Active
Compound: Cc1ccc(/C=N/NC(=O)c2cc(-c3ccccc3)n[nH]2)c(O)c1

inhibition [2]: Active
inhibition [3]: Active
inhibition [24]: Active
intrinsic clearance [11]: 270 µL/min/mg
intrinsic clearance [12]: 110 µL/min/mg
Activity [25]: 49.7%
Activity (HO15.19): 54.9%
inhibition [26]: Active
inhibition [27]: Active
inhibition [28]: Active
inhibition [29]: Active
Compound: CCN(CC)c1ccc(/C=N/NC(=O)Cn2nnc(-c3ccccc3)n2)c(O)c1
Activity [15]: Non-Toxic
TGI (Melanoma cell line [16]): Active
Activity [17]: Non-Toxic
TGI (SK-MEL-103 [18]): Active
Activity (SK-MEL-103 [19]): Active
Activity [20]: Non-Toxic
Activity [21]: Non-Toxic
TGI (SK-MEL-103 [22]): inactive
Activity (SK-MEL-103 [23]): <50%
Activity [30]: 100%
Activity [31]: 103.3%
Activity [32]: 103.8%
Activity [33]: 111.4%
Activity [34]: 113.3%
Activity [35]: 114.5%

inhibition [2]: Active
inhibition [3]: Active
Compound: C=CCc1cccc(/C=N/NC(=O)c2cc(C(C)(C)C)n[nH]2)c1O

More lines, now with the values behind:

Compound: CCCOc1ccc(N2C(=O)CC(N3CCC(C(=O)O)CC3)C2=O)cc1 (stereo not drawn)
growth inhibition (GI) (SK-MEL19): inactive
growth inhibition (GI) (SK-MEL-103 [1]): inactive

Compound: COc1ccc(OCC(=O)N/N=C\c2cc(O)c(O)c(Br)c2)c(Br)c1
inhibition [2]: Active
inhibition [3]: Active

Compound: CCCN(CCC)Cc1c(C(=O)N/N=C/c2ccc(N(CC)CC)cc2O)nnn1-c1nonc1N
inhibition [9]: Active
inhibition [10]: Active
intrinsic clearance [11]: 270 µL/min/mg
intrinsic clearance [12]: 130 µL/min/mg

Compound: CN(C)CCCNc1cc(O)c2c(c1O)C(=O)c1ccccc1C2=O
growth inhibition (GI) (SK-MEL19): inactive
growth inhibition (GI) (SK-MEL-103 [1]): inactive

Compound: CC(=O)NC(c1ccc2c(c1)OCO2)c1ccc2cccnc2c1O (stereo not drawn)
inhibition [2]: Active
inhibition [3]: Active

Compound: CCN(CC)C1CC(=O)N(c2cccc(Cl)c2)C1=O (stereo not drawn)
growth inhibition (GI) (SK-MEL19): inactive
growth inhibition (GI) (SK-MEL-103 [1]): inactive

Compound: COCc1cc(CN(C)C2CCCCC2)c(O)c2ncccc12
inhibition [2]: Active
inhibition [3]: Active
growth inhibition (GI) (BE(2)-C): Active
growth inhibition (GI) (IMR-32): Active
growth inhibition (GI) (Homo sapiens [4]): Active
growth inhibition (GI) (Homo sapiens [5]): Active
growth inhibition (GI) (SH-SY5Y): Active
growth inhibition (GI) (Homo sapiens [6]): Active
growth inhibition (GI) (Melanoma cell line [7]): Active
growth inhibition (GI) (Melanoma cell line [8]): Active
growth inhibition (GI) (Melanocyte): Non-Toxic

Compound: O=[N+]([O-])c1ccc(CCNC2CC3CCC2C3)cc1 (stereo not drawn)
growth inhibition (GI) (SK-MEL19): inactive
growth inhibition (GI) (SK-MEL-103 [1]): inactive

Compound: CCN(CC)c1ccc(/C=N\NC(=O)c2nnn(-c3nonc3N)c2CN2CCCCCC2)c(O)c1
inhibition [9]: Active
inhibition [10]: Active
intrinsic clearance [11]: 690 µL/min/mg
intrinsic clearance [12]: 87 µL/min/mg

Compound: CC(C)=NNc1ncnc2[nH]cnc12
growth inhibition (GI) (SK-MEL19): inactive
growth inhibition (GI) (SK-MEL-103 [1]): inactive

Compound: CCN(CC)Cc1c(C(=O)N/N=C/c2ccc(N(CC)CC)cc2O)nnn1-c1nonc1N
inhibition [9]: Active
inhibition [10]: Active
intrinsic clearance [11]: 300 µL/min/mg
intrinsic clearance [12]: 120 µL/min/mg
